This is an account of results in patent US20210346359A1, “Use of CFTR Modulators For Treating Cerebrovascular Conditions” (Qanatpharma AG, priority 2018, published 2021).

Entries after “also recorded” stand apart in the source; their conditions may differ.

The subject of test [1] is olfactory cerebral arteries. The experiment in a line: Phenylephrine responses of isolated olfactory cerebral arteries. The class given is in vivo, mouse. The settings on record: for phenylephrine dose-response relationship, SAH vs SAH+treatment: not normalized; for log EC50 of phenylephrine response: olfactory cerebral arteries, SAH+treatment group, log scale. How it is done:
Isolation and functional assessment of resistance arteries: Mouse olfactory (a first branch of the anterior cerebral artery) and PCAs were carefully dissected, cannulated onto micropipettes, stretched to their in vivo lengths and pressurized to 45 mmHg, as previously described (3,6); mouse skeletal muscle resistance arteries were dissected from the cremaster muscle, cannulated and pressurized to 60 mmHg. All functional experiments were conducted in 3-morpholinopropanesulfonic acid (MOPS) buffered saline at 37° C. with no perfusion. Vasomotor responses to phenylephrine (5 μmol/L for posterior cerebral arteries, 10 μmol/L for cremaster skeletal muscle arteries) provided an assessment of vessel viability at the beginning and end of each experiment. Arteries failing to show ≥25% constriction to phenylephrine were excluded.
Myogenic tone was calculated as the percent constriction in relation to the maximal diameter at each respective transmural pressure: tone (% of diamax)=[(diamax−diaactive)/diamax]×100, where diaactive is the vessel diameter in MOPS containing Ca^2+ and diamax is the diameter in Ca^2+-free MOPS. Analyses of vasomotor responses to phenylephrine used the same calculation, only in this case, diaactive represents the vessel diameter at steady state following application of the given agent and diamax represents the maximal diameter measured under Ca^2+-free conditions.

A further test concerns human CFTR mRNA. The experiment in a line: Quantitative PCR of CFTR mRNA in baby hamster kidney fibroblast cells stably expressing human CFTR. The conditions noted are these: 6 μmol/L, 24 h. Format: cell-based. As to the method:
Procedures for isolating and culturing mesenteric artery smooth muscle cells were carried out as described in (10). Briefly, mesenteric artery segments were isolated, cut into small pieces and digested with trypsin, collagenase and elastase. The resulting cell suspension was washed several times in phosphate-buffered saline and plated in Dulbecco's Modified Eagle Medium (DMEM) culture media containing 10% fetal bovine serum and 1% penicillin-streptomycin. Cell cultures were maintained at 37° C. with 5% CO2 and split at 106 cells seeding density. […]
Resistance artery RNA was isolated with Norgen Biotek (Thorold, Canada) “Total RNA Purification Micro” spin columns, using the proteinase K digestion and DNA removal procedures, as directed by the manufacturer's instructions. The eluted RNA was quantified with an Agilent Technologies RNA 6000 Pico Kit and Bioanalyzer; the analysis confirmed that high-quality RNA was retrieved from the artery tissue samples (RNA Integrity [RIN]: Cerebral=8.4±0.1, n=5; Cremaster=8.2±0.4, n=6). […]
Quantitative FOR was performed using an Applied Biosystems ViiA™ 7 Real Time FCR system and Power SYBR® Green FCR master mix (both distributed by lnvitrogen Life Technologies). […] Gene targets were assessed in triplicate, using 1 ng of cDNA generated from the reverse transcription; negative controls received water. […]

The next test deals with CFTR (Mus musculus, UniProt P26361). The experiment in a line: CFTR protein in cerebral arteries of mice with subarachnoid hemorrhage. The settings on record: 2 days post-induction, 3 mg/kg daily for 2 days. Further details: Cerebral artery lysates were prepared by grinding artery samples in lysis buffer; from tissue; host or cells: cerebral arteries of male wild-type C57BL/6N mice (naïve, heart failure or subarachnoid hemorrhage models). The class given is in vivo. How it is done: Western blots for CFTR were completed as previously described (12, 18). Cerebral artery lysates were prepared by grinding artery samples in lysis buffer containing 50 mM Tris (pH 7.3), 150 mM NaCl, 2 mM […], 0.1% Triton-X-100, 0.1% […] and protease inhibitors; the same lysis buffer was used to prepare cell culture lysates. Following lysis, the samples were centrifuged (10 minutes at 13,500 g; at 4° C.) to remove insoluble material. Immediately prior to polyacrylamide electrophoresis, additional SDS (to 2% final concentration), glycerol (to 2% final concentration), β-mercaptoethanol (to 2% final concentration) and dithiothreitol (2 mM final concentration) were added. Proteins were separated electrophoretically on 7% acrylamide gels and transferred onto polyvinylidene difluoride (PVDF) membranes. […]
Chain of CFTR (P26361 whole entry): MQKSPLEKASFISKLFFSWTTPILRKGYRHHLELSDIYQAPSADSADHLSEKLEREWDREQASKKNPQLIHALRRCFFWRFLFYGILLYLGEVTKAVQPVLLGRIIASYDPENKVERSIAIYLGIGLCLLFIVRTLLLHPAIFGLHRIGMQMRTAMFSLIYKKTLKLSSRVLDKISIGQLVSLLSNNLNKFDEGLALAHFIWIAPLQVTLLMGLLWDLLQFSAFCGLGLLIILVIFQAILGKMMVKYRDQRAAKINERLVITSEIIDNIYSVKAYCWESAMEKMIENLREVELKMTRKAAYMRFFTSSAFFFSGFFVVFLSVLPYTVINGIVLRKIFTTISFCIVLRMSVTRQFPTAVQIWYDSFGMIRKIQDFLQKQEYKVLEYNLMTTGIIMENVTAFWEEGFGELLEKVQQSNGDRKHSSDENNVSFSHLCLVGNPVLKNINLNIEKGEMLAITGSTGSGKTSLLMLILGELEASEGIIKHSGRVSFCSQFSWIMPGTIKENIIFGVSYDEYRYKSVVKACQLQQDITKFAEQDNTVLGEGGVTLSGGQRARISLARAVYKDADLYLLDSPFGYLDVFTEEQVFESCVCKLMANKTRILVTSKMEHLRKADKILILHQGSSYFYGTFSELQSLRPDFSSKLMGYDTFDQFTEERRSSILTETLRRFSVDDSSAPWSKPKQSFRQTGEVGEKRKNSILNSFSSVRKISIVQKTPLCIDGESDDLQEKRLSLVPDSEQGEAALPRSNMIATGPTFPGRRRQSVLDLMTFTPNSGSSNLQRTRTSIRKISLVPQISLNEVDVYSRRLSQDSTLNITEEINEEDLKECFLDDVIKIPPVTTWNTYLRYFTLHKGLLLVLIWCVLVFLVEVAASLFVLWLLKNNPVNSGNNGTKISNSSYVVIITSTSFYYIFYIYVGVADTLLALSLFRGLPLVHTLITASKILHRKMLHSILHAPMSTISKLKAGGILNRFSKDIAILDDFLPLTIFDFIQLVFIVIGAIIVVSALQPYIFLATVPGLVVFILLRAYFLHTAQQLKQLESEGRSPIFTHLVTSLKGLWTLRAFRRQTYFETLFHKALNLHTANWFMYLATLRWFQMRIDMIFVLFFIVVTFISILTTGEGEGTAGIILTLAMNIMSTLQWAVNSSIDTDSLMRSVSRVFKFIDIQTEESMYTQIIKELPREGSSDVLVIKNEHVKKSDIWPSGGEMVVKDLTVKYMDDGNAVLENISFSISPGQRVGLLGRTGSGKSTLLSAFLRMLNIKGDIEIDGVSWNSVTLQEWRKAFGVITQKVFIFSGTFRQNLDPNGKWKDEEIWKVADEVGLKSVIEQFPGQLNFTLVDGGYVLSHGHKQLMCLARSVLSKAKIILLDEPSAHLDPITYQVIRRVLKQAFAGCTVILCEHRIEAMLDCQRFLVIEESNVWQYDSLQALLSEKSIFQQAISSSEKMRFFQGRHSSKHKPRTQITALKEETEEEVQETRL
The primary antibodies were conjugated with either peroxidase-labeled donkey anti-rabbit IgG (GE Healthcare Amersham (Piscataway, USA) cat# NA934) or peroxidase-labeled goat anti-mouse IgG (GE Healthcare Amersham cat# NA931) secondary antibodies. […] Developed films were evaluated densitometrically using “Image J” software (freely available from the NIH); digital images were evaluated with Image Lab software (Bio-Rad). […]

Setting [2] is: olfactory cerebral arteries from SAH mice, 3 mg/kg i.p. daily for 2 days, 3 mg/kg.

Take `Cc1ccc(NC(=O)C2(c3ccc4c(c3)OC(F)(F)O4)CC2)nc1-c1cccc(C(=O)O)c1` [lumacaftor]: the “phenylephrine dose-response relationship, SAH vs SAH+treatment” value in test [1] (setting [2]) is “does not affect; also recorded: does not alter”. The “log EC50 of phenylephrine response” value in test [1] is listed as −5.90±0.18. For the same compound, the “CFTR mRNA expression” value with human CFTR mRNA was “unaffected; also recorded: does not influence”. The “cerebral artery CFTR protein expression in SAH” value at CFTR is “restores; also recorded: eliminates this reduction”.
In the case of `O=C(Nc1ncc(C(c2ccccc2Cl)N2CCC(O)C2)s1)C1(c2ccc3c(c2)OCO3)CC1` (centres unmarked) [C18, 1-(benzo[d][1,3]dioxol-5-yl)-N-(5-((2-chlorophenyl)(3-hydroxypyrrolidin-1-yl)methyl)thiazol-2-yl)cyclopropanecarboxamide], the phenylephrine dose-response relationship result in test [1] (olfactory cerebral arteries from CFTR knockout mice, 3 mg/kg i.p. daily for 2 days, 3 mg/kg) is listed as “not affected; also recorded: does not alter”. In test [1] (setting [2]), the “phenylephrine dose-response relationship normalized to basal tone, SAH vs SAH+C18” value is recorded as “curves overlap; also recorded: minimal” and the “phenylephrine dose-response relationship, SAH vs SAH+treatment” value was “expected baseline shift; also recorded: not statistically different”. For the same compound, the phenylephrine dose-response relationship entry in test [1] (olfactory cerebral arteries from sham-operated mice, 3 mg/kg i.p. daily for 2 days, 3 mg/kg) was “does not affect; also recorded: does not alter”. Further, the “log EC50 of phenylephrine response” value in test [1] is recorded as −6.61±0.31. Further, the “CFTR mRNA expression” value with human CFTR mRNA is given as “no affect; also recorded: does not influence”. Also, the “cerebral artery CFTR protein expression in SAH” value on CFTR is listed as “restores; also recorded: eliminates this reduction”.
